The results in this text go back to PubChem BioAssay AID1259407 (Chemical Carcinogenesis Research Information System (CCRIS), 2018).

The source made the active and inactive calls. The rule behind the calls is not given here.

In the series the test system is CCRIS mutagenicity, Ames/micronucleus/aberration tests. Kind of series: CCRIS mutagenicity studies.

With `CCCl`, the mutagenic call by setting is: (Test System: AMES SALMONELLA TYPHIMURIUM, Strain/Indicator: TA98, Metabolic Activation: NONE, Method: DESICCATOR) “inactive; negative”; (Test System: AMES SALMONELLA TYPHIMURIUM, Strain/Indicator: TA98, Metabolic Activation: NONE, Method: GAS EXPOSURE) “inactive; negative”; (Test System: AMES SALMONELLA TYPHIMURIUM, Strain/Indicator: TA98, Metabolic Activation: RAT LIVER S-9, PHENOBARBITAL AND BETA-NAPHTHOFLAVONE, Method: GAS EXPOSURE) “inactive; negative”; (Test System: AMES SALMONELLA TYPHIMURIUM, Strain/Indicator: TA98, Metabolic Activation: RAT, LIVER, S-9, AROCLOR 1254 (30%), Method: DESICCATOR) “inactive; negative”; (Test System: AMES SALMONELLA TYPHIMURIUM, Strain/Indicator: TA98, Metabolic Activation: RAT, LIVER, S-9, PHENOBARBITAL AND 5,6-BENZOFLAVONE, Method: GAS EXPOSURE) “inactive; negative”; (Test System: AMES SALMONELLA TYPHIMURIUM, Strain/Indicator: TA100, Metabolic Activation: HAMSTER, LIVER, S-9, AROCLOR 1254 (30%), Method: DESICCATOR) “inactive; negative”. Also, the mutagenic call is, setting by setting: (Test System: AMES SALMONELLA TYPHIMURIUM, Strain/Indicator: TA100, Metabolic Activation: NONE, Method: DESICCATOR) “inactive; negative”; (Test System: AMES SALMONELLA TYPHIMURIUM, Strain/Indicator: TA100, Metabolic Activation: NONE, Method: GAS EXPOSURE) “active; positive”; (Test System: AMES SALMONELLA TYPHIMURIUM, Strain/Indicator: TA100, Metabolic Activation: RAT LIVER S-9, PHENOBARBITAL AND BETA-NAPHTHOFLAVONE, Method: GAS EXPOSURE) “active; positive”; (Test System: AMES SALMONELLA TYPHIMURIUM, Strain/Indicator: TA100, Metabolic Activation: RAT, LIVER, S-9, PCB, Method: GAS EXPOSURE) “inactive; negative”; (Test System: AMES SALMONELLA TYPHIMURIUM, Strain/Indicator: TA100, Metabolic Activation: RAT, LIVER, S-9, PHENOBARBITAL AND 5,6-BENZOFLAVONE, Method: GAS EXPOSURE) “active; positive”; (Test System: AMES SALMONELLA TYPHIMURIUM, Strain/Indicator: TA1535, Metabolic Activation: HAMSTER, LIVER, S-9, AROCLOR 1254 (30%), Method: DESICCATOR) “active; positive”. Also, the mutagenic call runs as follows: (Test System: AMES SALMONELLA TYPHIMURIUM, Strain/Indicator: TA1535, Metabolic Activation: NONE, Method: DESICCATOR) “active; positive”; (Test System: AMES SALMONELLA TYPHIMURIUM, Strain/Indicator: TA1535, Metabolic Activation: NONE, Method: GAS EXPOSURE) “active; positive”; (Test System: AMES SALMONELLA TYPHIMURIUM, Strain/Indicator: TA1535, Metabolic Activation: RAT LIVER S-9, PHENOBARBITAL AND BETA-NAPHTHOFLAVONE, Method: GAS EXPOSURE) “active; positive”; (Test System: AMES SALMONELLA TYPHIMURIUM, Strain/Indicator: TA1535, Metabolic Activation: RAT, LIVER, S-9, AROCLOR 1254 (30%), Method: DESICCATOR) “active; positive”; (Test System: AMES SALMONELLA TYPHIMURIUM, Strain/Indicator: TA1535, Metabolic Activation: RAT, LIVER, S-9, PHENOBARBITAL AND 5,6-BENZOFLAVONE, Method: GAS EXPOSURE) “active; positive”; (Test System: AMES SALMONELLA TYPHIMURIUM, Strain/Indicator: TA1537, Metabolic Activation: NONE, Method: GAS EXPOSURE) “inactive; negative”. In addition, the mutagenic call is, setting by setting: (Test System: AMES SALMONELLA TYPHIMURIUM, Strain/Indicator: TA1537, Metabolic Activation: RAT LIVER S-9, PHENOBARBITAL AND BETA-NAPHTHOFLAVONE, Method: GAS EXPOSURE) “inactive; negative”; (Test System: AMES SALMONELLA TYPHIMURIUM, Strain/Indicator: TA1537, Metabolic Activation: RAT, LIVER, S-9, PHENOBARBITAL AND 5,6-BENZOFLAVONE, Method: GAS EXPOSURE) “inactive; negative”; (Test System: CHINESE HAMSTER OVARY, Strain/Indicator: CHO-K1 (HPRT)/6-THIOGUANINE, Metabolic Activation: NONE) “active; positive”; (Test System: CHINESE HAMSTER OVARY, Strain/Indicator: CHO-K1 (HPRT)/6-THIOGUANINE, Metabolic Activation: RAT, LIVER, S-9, AROCLOR 1254) “active; positive”; (Test System: E. COLI, Strain/Indicator: WP2 UVRA (PKM101), Metabolic Activation: RAT, LIVER, S-9, PCB, Method: GAS EXPOSURE) “inactive; negative”; (Test System: E. COLI, Strain/Indicator: WP2 UVRA, Metabolic Activation: NONE, Method: GAS EXPOSURE) “active; positive”. Further, the mutagenic call was “inactive; negative” (Test System: E. COLI, Strain/Indicator: WP2 UVRA, Metabolic Activation: RAT, LIVER, S-9, PCB, Method: GAS EXPOSURE); “active; positive” (Test System: E. COLI, Strain/Indicator: WP2 UVRA, Metabolic Activation: RAT, LIVER, S-9, PHENOBARBITAL AND 5,6-BENZOFLAVONE, Method: GAS EXPOSURE); “active; positive” (Test System: E.COLI, Strain/Indicator: WP2UVRA, Metabolic Activation: NONE, Method: GAS EXPOSURE); “active; positive” (Test System: E.COLI, Strain/Indicator: WP2UVRA, Metabolic Activation: RAT LIVER S-9, PHENOBARBITAL AND BETA-NAPHTHOFLAVONE, Method: GAS EXPOSURE); “inactive; negative” (Test System: UDS MOUSE HEPATOCYTES, Strain/Indicator: THY INCORP, Metabolic Activation: NONE, Method: IN VIVO-IN VITRO).

For `O=C(O)C(F)(F)C(F)(Cl)C(F)(F)C(F)(Cl)C(F)(F)C(F)(Cl)C(F)(F)Cl` (configuration not stated), the mutagenic call was “inactive; negative” (Test System: AMES SALMONELLA TYPHIMURIUM, Strain/Indicator: TA98, Metabolic Activation: NONE, Method: PREINCUBATION); “inactive; negative” (Test System: AMES SALMONELLA TYPHIMURIUM, Strain/Indicator: TA98, Metabolic Activation: RAT, LIVER, S-9, Method: PREINCUBATION); “inactive; negative” (Test System: AMES SALMONELLA TYPHIMURIUM, Strain/Indicator: TA100, Metabolic Activation: NONE, Method: PREINCUBATION); “inactive; negative” (Test System: AMES SALMONELLA TYPHIMURIUM, Strain/Indicator: TA100, Metabolic Activation: RAT, LIVER, S-9, Method: PREINCUBATION); “inactive; negative” (Test System: AMES SALMONELLA TYPHIMURIUM, Strain/Indicator: TA1535, Metabolic Activation: NONE, Method: PREINCUBATION); “inactive; negative” (Test System: AMES SALMONELLA TYPHIMURIUM, Strain/Indicator: TA1535, Metabolic Activation: RAT, LIVER, S-9, Method: PREINCUBATION). Also, the mutagenic call was “inactive; negative” (Test System: AMES SALMONELLA TYPHIMURIUM, Strain/Indicator: TA1537, Metabolic Activation: NONE, Method: PREINCUBATION); “inactive; negative” (Test System: AMES SALMONELLA TYPHIMURIUM, Strain/Indicator: TA1537, Metabolic Activation: RAT, LIVER, S-9, Method: PREINCUBATION); “inactive; negative” (Test System: AMES SALMONELLA TYPHIMURIUM, Strain/Indicator: TA1538, Metabolic Activation: NONE, Method: PREINCUBATION); “inactive; negative” (Test System: AMES SALMONELLA TYPHIMURIUM, Strain/Indicator: TA1538, Metabolic Activation: RAT, LIVER, S-9, Method: PREINCUBATION); “inactive; negative” (Test System: CHINESE HAMSTER OVARY, Strain/Indicator: CHO-K1-BH4 (HGPRT), Metabolic Activation: NONE, Method: STANDARD PLATE); “inactive; negative” (Test System: CHINESE HAMSTER OVARY, Strain/Indicator: CHO-K1-BH4 (HGPRT), Metabolic Activation: RAT, LIVER, S-9, Method: STANDARD PLATE). Further, where the note is “Test System: UDS RODENT HEPATOCYTES, Strain/Indicator: THY INCORP (NON-S-PHASE), Metabolic Activation: NONE, Method: AUTORADIOGRAPHY”, the mutagenic call was “inactive; negative”.
